In US8063071B2 (GlaxoSmithKline, LLC, priority 2007, dated 2011):
Structures can show the parent of a compound that is named as a salt.

Legend:
[1] = target: T1, Recombinant human IKKβ (residues 1-737) (Homo sapiens, UniProt O14920); experiment: IKK2 assay (TR-FRET); assay type: biochemical; settings: ATP 1 μM final, read-out: pIC50 against IKK2 (converted)
T1 construct: Recombinant human IKKβ (residues 1-737); GST (C); made in house
T1 sequence (O14920 1-737): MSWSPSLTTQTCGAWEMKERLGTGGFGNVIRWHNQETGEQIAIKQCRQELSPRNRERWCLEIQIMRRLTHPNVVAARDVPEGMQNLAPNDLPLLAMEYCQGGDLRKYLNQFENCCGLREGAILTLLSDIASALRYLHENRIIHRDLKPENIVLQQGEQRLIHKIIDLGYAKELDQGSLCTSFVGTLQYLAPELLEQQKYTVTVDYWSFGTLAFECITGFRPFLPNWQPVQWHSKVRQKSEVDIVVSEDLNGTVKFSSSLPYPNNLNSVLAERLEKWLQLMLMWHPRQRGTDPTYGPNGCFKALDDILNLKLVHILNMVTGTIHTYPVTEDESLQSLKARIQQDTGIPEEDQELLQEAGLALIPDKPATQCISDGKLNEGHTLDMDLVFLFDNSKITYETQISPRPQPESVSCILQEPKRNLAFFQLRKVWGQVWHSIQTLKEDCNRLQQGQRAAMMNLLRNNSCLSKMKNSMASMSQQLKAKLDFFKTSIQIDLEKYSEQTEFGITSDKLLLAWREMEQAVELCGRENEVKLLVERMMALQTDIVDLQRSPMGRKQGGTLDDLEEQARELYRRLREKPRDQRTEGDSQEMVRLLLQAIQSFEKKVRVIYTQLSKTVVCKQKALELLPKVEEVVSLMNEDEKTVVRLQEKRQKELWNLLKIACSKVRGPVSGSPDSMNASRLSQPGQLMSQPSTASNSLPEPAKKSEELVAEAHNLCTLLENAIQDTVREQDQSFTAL
Procedure, shortened: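 TR-FRET readout (665 nm over 620 nm Eu reference) of GST-IB Ser32/36 phosphorylation after 60 min detection. Reaction: 1 μM ATP, 25 nM substrate, 0.5-5 nM GST-fused IKKβ 1-737 from baculovirus, pH 7.4 HEPES buffer, 1.7% DMSO, 15 min room temperature, EDTA-terminated.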

[2] = test system: human monocyte stimulated cytokine production (TNF-α); experiment: Monocyte assay (LPS-stimulated TNF-α production); assay type: cell-based; settings: for inhibition at 0.3 µM: read-out: inhibition at 300 nM in the monocyte assay; for IC50: 24 h, 200 ng/mL LPS, TNF-α by ELISA
Procedure, shortened: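 TNF-α release was measured by ELISA after 24 hrs at 37 C. Cells were stimulated with 200 ng/mL E. coli LPS, with compound added 30 minutes beforehand (0.1% DMSO vehicle). Cells were Ficoll/MACS-isolated CD14+ human monocytes adhered at 1×10^6 cells/mL, and viability was checked by trypan blue.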

SMILES | IC50 [1] [µM] | inhibition at 0.3 µM [2] [%] | IC50 [2] [µM]
CCS(=O)(=O)N1CCC(c2c[nH]c3c(C(N)=O)cc(-c4csc(CN5CC[C@H](N(C)C)C5)c4)cc23)CC1 [Example 49, 5-(5-{[(3S)-3-(dimethylamino)-1-pyrrolidinyl]methyl}-3-thienyl)-3-[1-(ethylsulfonyl)-4-piperidinyl]-1H-indole-7-carboxamide] | ≤ 10 | 0 to 60 | –
CCS(=O)(=O)N1CCC(c2c[nH]c3c(C(N)=O)cc(-c4cnn(CCN5CCC(N(C)C)CC5)c4)cc23)CC1 [Example 50, 5-(1-{2-[4-(dimethylamino)-1-piperidinyl]ethyl}-1H-pyrazol-4-yl)-3-[1-(ethylsulfonyl)-4-piperidinyl]-1H-indole-7-carboxamide trifluoroacetate] | ≤ 10 | – | > 1
CCS(=O)(=O)N1CCC(c2c[nH]c3c(C(N)=O)cc(-c4cc(CN(C)C)c5c(c4)OCC5)cc23)CC1 [Example 58, 5-{4-[(dimethylamino)methyl]-2,3-dihydro-1-benzofuran-6-yl}-3-[1-(ethylsulfonyl)-4-piperidinyl]-1H-indole-7-carboxamide] | ≤ 10 | 0 to 60 | –
CCS(=O)(=O)N1CCC(c2c[nH]c3c(C(N)=O)cc(-c4cc(CN5CCOCC5)c5c(c4)OCC5)cc23)CC1 [Example 60, 3-[1-(ethylsulfonyl)-4-piperidinyl]-5-[4-(4-morpholinylmethyl)-2,3-dihydro-1-benzofuran-6-yl]-1H-indole-7-carboxamide] | ≤ 10 | 0 to 60 | –
CCS(=O)(=O)N1CCC(c2c[nH]c3c(C(N)=O)cc(-c4ccc(CNC(C)COC)s4)cc23)CC1 (centres unmarked) [Example 61, 3-[1-(ethylsulfonyl)-4-piperidinyl]-5-[5-({[1-methyl-2-(methyloxy)ethyl]amino}methyl)-2-thienyl]-1H-indole-7-carboxamide] | ≤ 10 | – | ≤ 1.5
CCS(=O)(=O)N1CCC(c2c[nH]c3c(C(N)=O)cc(-c4cncc(CNCCC#N)c4)cc23)CC1 [Example 62, 5-(5-{[(2-cyanoethyl)amino]methyl}-3-pyridinyl)-3-[1-(ethylsulfonyl)-4-piperidinyl]-1H-indole-7-carboxamide] | ≤ 10 | – | ≤ 1.5
CCS(=O)(=O)N1CCC(c2c[nH]c3c(C(N)=O)cc(-c4cncc(CNCC(F)(F)F)c4)cc23)CC1 [Example 63, 3-[1-(ethylsulfonyl)-4-piperidinyl]-5-(5-{[(2,2,2-trifluoroethyl)amino]methyl}-3-pyridinyl)-1H-indole-7-carboxamide] | ≤ 10 | 0 to 60 | –
CCS(=O)(=O)N1CCC(c2c[nH]c3c(C(N)=O)cc(-c4cccc(CN(C)C)c4)cc23)CC1 [Example 64, 5-{3-[(dimethylamino)methyl]phenyl}-3-[1-(ethylsulfonyl)-4-piperidinyl]-1H-indole-7-carboxamide] | ≤ 10 | – | ≤ 1.5
CCN(C)Cc1cc(-c2cc(C(N)=O)c3[nH]cc(C4CCN(S(=O)(=O)CC)CC4)c3c2)cs1 [Example 65, 5-(5-{[ethyl(methyl)amino]methyl}-3-thienyl)-3-[1-(ethylsulfonyl)-4-piperidinyl]-1H-indole-7-carboxamide trifluoroacetate] | ≤ 10 | – | ≤ 1.5
CCN(CC)CCN(C)Cc1cc(-c2cc(C(N)=O)c3[nH]cc(C4CCN(S(=O)(=O)CC)CC4)c3c2)cs1 [Example 66, 5-(5-{[[2-(diethylamino)ethyl](methyl)amino]methyl}-3-thienyl)-3-[1-(ethylsulfonyl)-4-piperidinyl]-1H-indole-7-carboxamide trifluoroacetate] | ≤ 10 | – | ≤ 1.5
CCCCN(C)Cc1cc(-c2cc(C(N)=O)c3[nH]cc(C4CCN(S(=O)(=O)CC)CC4)c3c2)cs1 [Example 67, 5-(5-{[butyl(methyl)amino]methyl}-3-thienyl)-3-[1-(ethylsulfonyl)-4-piperidinyl]-1H-indole-7-carboxamide trifluoroacetate] | ≤ 10 | – | ≤ 1.5
CCCN(C)Cc1cc(-c2cc(C(N)=O)c3[nH]cc(C4CCN(S(=O)(=O)CC)CC4)c3c2)cs1 [Example 68, 3-[1-(ethylsulfonyl)-4-piperidinyl]-5-(5-{[methyl(propyl)amino]methyl}-3-thienyl)-1H-indole-7-carboxamide trifluoroacetate] | ≤ 10 | – | ≤ 1.5
CCS(=O)(=O)N1CCC(c2c[nH]c3c(C(N)=O)cc(-c4csc(CN(C)CCN(C)C)c4)cc23)CC1 [Example 69, 5-(5-{[[2-(dimethylamino)ethyl](methyl)amino]methyl}-3-thienyl)-3-[1-(ethylsulfonyl)-4-piperidinyl]-1H-indole-7-carboxamide trifluoroacetate] | ≤ 10 | – | ≤ 1.5
CCS(=O)(=O)N1CCC(c2c[nH]c3c(C(N)=O)cc(-c4csc(CN(C)CCCN(C)C)c4)cc23)CC1 [Example 70, 5-(5-{[[3-(dimethylamino)propyl](methyl)amino]methyl}-3-thienyl)-3-[1-(ethylsulfonyl)-4-piperidinyl]-1H-indole-7-carboxamide trifluoroacetate] | ≤ 10 | – | > 1
CCS(=O)(=O)N1CCC(c2c[nH]c3c(C(N)=O)cc(-c4csc(CN(C)C5CCCC5)c4)cc23)CC1 [Example 71, 5-(5-{[cyclopentyl(methyl)amino]methyl}-3-thienyl)-3-[1-(ethylsulfonyl)-4-piperidinyl]-1H-indole-7-carboxamide trifluoroacetate] | ≤ 10 | – | ≤ 1.5
CCCCCN(C)Cc1cc(-c2cc(C(N)=O)c3[nH]cc(C4CCN(S(=O)(=O)CC)CC4)c3c2)cs1 [Example 72, 3-[1-(ethylsulfonyl)-4-piperidinyl]-5-(5-{[methyl(pentyl)amino]methyl}-3-thienyl)-1H-indole-7-carboxamide trifluoroacetate] | ≤ 10 | – | ≤ 1.5
CCS(=O)(=O)N1CCC(c2c[nH]c3c(C(N)=O)cc(-c4csc(CN(C)CC(C)C)c4)cc23)CC1 [Example 73, 3-[1-(ethylsulfonyl)-4-piperidinyl]-5-(5-{[methyl(2-methylpropyl)amino]methyl}-3-thienyl)-1H-indole-7-carboxamide trifluoroacetate] | ≤ 10 | – | ≤ 1.5
CCS(=O)(=O)N1CCC(c2c[nH]c3c(C(N)=O)cc(-c4csc(CN(C)Cc5ccccc5)c4)cc23)CC1 [Example 74, 3-[1-(ethylsulfonyl)-4-piperidinyl]-5-(5-{[methyl(phenylmethyl)amino]methyl}-3-thienyl)-1H-indole-7-carboxamide trifluoroacetate] | ≤ 10 | 0 to 60 | –
CCS(=O)(=O)N1CCC(c2c[nH]c3c(C(N)=O)cc(-c4csc(CN(C)CCO)c4)cc23)CC1 [Example 75, 3-[1-(ethylsulfonyl)-4-piperidinyl]-5-(5-{[(2-hydroxyethyl)(methyl)amino]methyl}-3-thienyl)-1H-indole-7-carboxamide trifluoroacetate] | ≤ 10 | – | ≤ 1.5
CCS(=O)(=O)N1CCC(c2c[nH]c3c(C(N)=O)cc(-c4csc(CN(C)CCc5ccccn5)c4)cc23)CC1 [Example 76, 3-[1-(ethylsulfonyl)-4-piperidinyl]-5-[5-({methyl[2-(2-pyridinyl)ethyl]amino}methyl)-3-thienyl]-1H-indole-7-carboxamide trifluoroacetate] | ≤ 10 | – | ≤ 1.5
CCS(=O)(=O)N1CCC(c2c[nH]c3c(C(N)=O)cc(-c4csc(CN(C)Cc5ccco5)c4)cc23)CC1 [Example 77, 3-[1-(ethylsulfonyl)-4-piperidinyl]-5-(5-{[(2-furanylmethyl)(methyl)amino]methyl}-3-thienyl)-1H-indole-7-carboxamide trifluoroacetate] | ≤ 10 | – | ≤ 1.5
CCS(=O)(=O)N1CCC(c2c[nH]c3c(C(N)=O)cc(-c4csc(CN(C)Cc5ccncc5)c4)cc23)CC1 [Example 78, 3-[1-(ethylsulfonyl)-4-piperidinyl]-5-(5-{[methyl(4-pyridinylmethyl)amino]methyl}-3-thienyl)-1H-indole-7-carboxamide trifluoroacetate] | ≤ 10 | – | ≤ 1.5
